Data taken from article PMC10799042 (Scientific Reports, 2024).

Experiments:
[1] = test system: scopolamine-induced memory impairment and learning disability in mice; assay: Morris water maze, scopolamine-induced memory impairment; type: in vivo, Swiss albino male mice; settings: for Escape latency, 1st Day: day 1; for Escape latency, 2nd Day: day 2; for Escape latency, 3rd Day: day 3; for Escape latency, 4th Day: day 4; for Escape latency, 5th Day: day 5; for escape latency versus scopolamine-treated mice (in words) / improvement of cognitive defects (in words): 2 mg/kg; for escape latency versus scopolamine-treated mice (in words): day 1 to 5; for improvement of cognitive defects (in words): compared with donepezil 2 mg/kg
Experimental: Swiss albino male mice weighing 25–30 g were purchased from LLRUVAS in Hisar, Haryana, India. […] The housing, care, and handling of the animals were done per CPCSEA requirements. The animals were exposed to the laboratory setting for seven days before the experiment.
(§1) The animals were properly acclimated before being randomly placed into 12 groups (I-XII), with six animals in each group. […] Following the delivery of the dose to the mouse, the rodent's behaviour was assessed using the traditional Morris water maze (MWM) technique.
Five days of continuous animal evaluations were conducted using the MWM model. […] The tank was placed in a dim laboratory, and using wires anchored at the pool's edge at an angle to one another, it was divided into four equal pieces (P1–P4). A stage in the targeted area (P4) of the pool with an upper face (6 × 6 cm^2) immersed in the water (1.0 cm below the surface). The location of the stage stayed the same throughout the evaluation. The animals were subjected to water pools throughout the evaluation by turning their heads towards the wall from any of the four segments, namely P1-P4, and being given 90 s to recognise the stage placed in a pool. If the animal couldn't get to the stage in 90 s, they were gently guided onto the stage under supervision. On the sixth day, one of the parameters used to determine if cognitive impairments have recovered was the time it took the mice to travel from the initial portion to locate the hidden stage in the intended part (escape latency). […]

[2] = test system: Reduced glutathione (GSH); assay: Reduced glutathione (GSH) assay in brain homogenate; type: in vivo; settings: brain THS of mice, scopolamine 1.5 mg/kg i.p.; donepezil and compounds 2 mg/kg p.o.; mean ± SD
Experimental: as §1
(§2) After five days of behavioral assessment, the mice's brains were removed and homogenized (blended) in chilled phosphate buffer (pH 7.4) at a concentration of 10% w/v (weight per volume). The homogenates were then centrifuged (spun at high speed) for 20 min at 4 °C to separate the supernatant (liquid) from the pellet (solid material). The supernatant was then collected to measure biological substances.
The method described by Jollow et al. was used to measure glutathione (GSH) levels. First, 1.0 mL of 4% sulfosalicylic acid was added to 1.0 mL of tissue homogenate to precipitate the GSH. The mixture was then incubated at 4 °C for 1 h and centrifuged at 1200 rpm for 10 min at 4 °C. The supernatant was collected and diluted to a final volume of 3.0 mL with phosphate buffer and Ellman's reagent. […]

nitrite = assay: Nitrite assay (Greiss reagent) in brain homogenate; type: in vivo; settings: brain THS of mice, scopolamine 1.5 mg/kg i.p.; donepezil and compounds 2 mg/kg p.o.; mean ± SD
Experimental: as §1, §2
The amount of nitric oxide in THS was calculated using Greiss' reagent, a mixture of chemicals that reacts with nitric oxide to produce a colored product. The absorbance of the colored product was computed at 540 nm and the concentration of nitrite was determined using a standard curve of known nitrite concentrations.

[3] = molecular target: T1, Acetylcholinesterase (AChE) (Mus musculus, UniProt P21836); settings: brain THS of mice, scopolamine 1.5 mg/kg i.p.; donepezil and compounds 2 mg/kg p.o.; mean ± SD
T1 sequence (P21836 32-614): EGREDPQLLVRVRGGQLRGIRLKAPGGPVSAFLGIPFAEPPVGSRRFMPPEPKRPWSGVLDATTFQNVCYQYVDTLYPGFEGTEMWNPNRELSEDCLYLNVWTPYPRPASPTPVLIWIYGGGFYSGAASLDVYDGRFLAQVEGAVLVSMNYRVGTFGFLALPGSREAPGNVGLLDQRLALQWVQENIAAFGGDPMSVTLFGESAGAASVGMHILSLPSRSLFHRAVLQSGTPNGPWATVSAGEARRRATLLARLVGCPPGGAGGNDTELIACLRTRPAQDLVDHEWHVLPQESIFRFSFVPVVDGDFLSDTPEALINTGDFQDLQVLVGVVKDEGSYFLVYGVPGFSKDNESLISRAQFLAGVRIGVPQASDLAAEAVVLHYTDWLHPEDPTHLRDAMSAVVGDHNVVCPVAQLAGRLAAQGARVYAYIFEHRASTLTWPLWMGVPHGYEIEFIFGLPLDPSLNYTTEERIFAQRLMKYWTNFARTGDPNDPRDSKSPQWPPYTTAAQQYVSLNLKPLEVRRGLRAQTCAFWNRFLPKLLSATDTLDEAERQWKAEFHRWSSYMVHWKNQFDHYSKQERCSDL
Experimental: as §1, §2
Employing Ellman et al., methodology, AChE levels were quantified in tissue homogenate supernatant (THS) to evaluate cholinergic abnormalities.

malondialdehyde (MDA) = assay: Lipid peroxidation (LPO) assay, MDA in brain homogenate; type: in vivo; settings: brain THS of mice, scopolamine 1.5 mg/kg i.p.; donepezil and compounds 2 mg/kg p.o.; mean ± SD
Experimental: as §1, §2
The amount of malondialdehyde (MDA), a marker of lipid peroxidation (LPO), was measured using a method described by Wills[10]. Tris–HCl buffer and THS were mixed and incubated at 37 °C for 2 h with 10% trichloroacetic acid. After incubation, the mixture was centrifuged again (at 1000 rpm for 10 min). […] After cooling, 1.0 mL of double-distilled water was added, and the absorbance was measured at 532 nm.

[4] = test system: Superoxide dismutase (SOD); assay: Superoxide dismutase (SOD) assay in brain homogenate; type: in vivo; settings: brain THS of mice, scopolamine 1.5 mg/kg i.p.; donepezil and compounds 2 mg/kg p.o.; mean ± SD
Experimental: as §1, §2
The samples contained EDTA, sodium carbonate, and NBT, and the assay was performed using Kono's method. Each sample tube contained 2.0 mL of this mixture, as well as THS and hydroxylamine. The absorbance of the mixture was measured at 560 nm every 30 or 60 s for 2 min to track changes in absorbance.

Catalase = Catalase assay in brain homogenate; type: in vivo; settings: brain THS of mice, scopolamine 1.5 mg/kg i.p.; donepezil and compounds 2 mg/kg p.o.; mean ± SD
Experimental: as §1, §2
Employing the methodology of Luck et al., catalase activity was quantified. The sample contained H2O2 (1.0 mL, 0.019 M), phosphate buffer (1.95 mL, 0.05 M, pH 7.0), and THS (0.05 mL). The optical density was computed at a wavelength of 240 nm. The findings were shown as μM H2O2 decomposition/min/mg protein[13].

[5] = mice, scopolamine 1.5 mg/kg i.p., donepezil and compounds 2 mg/kg p.o. with scopolamine, mean ± SD

CN1[C@@H]2C[C@@H](OC(=O)[C@H](CO)c3ccccc3)C[C@H]1[C@@H]1O[C@@H]12 [Scopolamine, scopolamine, reference compound]
Escape latency, 1st Day [1, 5]: 78.65 ± 0.82 s | Escape latency, 2nd Day [1, 5]: 80.64 ± 3.91 s | Escape latency, 3rd Day [1, 5]: 82.82 ± 3.79 s | Escape latency, 4th Day [1, 5]: 84.15 ± 3.31 s | Escape latency, 5th Day [1, 5]: 86.25 ± 3.31 s | TSTQ (time spent in the target quadrant) ([1]; mice, scopolamine 1.5 mg/kg i.p., donepezil and compounds 2 mg/kg p.o. with scopolamine, probe trial, mean ± SD): 18.55 ± 0.88 s

2-(1-benzylpiperidin-4-yl)-6,7-dimethoxy-4-(4-(trifluoromethyl)phenyl)quinoline [Compound 19]
GSH assay, μmol of GSH/mg Protein [2]: 0.09 ± 0.005 μmol of GSH/mg Protein | Nitrite assay, nitrite conc. (nitrite): 11.31 ± 0.03 μM/mg protein | μM of AChE/min/mg protein [3]: 0.01 ± 0.02 μM of AChE/min/mg protein | LPO assay, MDA levels (malondialdehyde (MDA)): 9.25 ± 0.02 nM/mg of tissue | SOD assay, SOD units/mg protein [4]: 3.09 ± 0.03 SOD units/mg protein | Catalase assay, Catalase activity (Catalase): 5.17 ± 0.05 min⁻¹ | escape latency versus scopolamine-treated mice (in words) [1]: significantly reduced escape latency | Escape latency, 1st Day [1, 5]: 54.83 ± 1.47 s | Escape latency, 2nd Day [1, 5]: 44.83 ± 2.71 s | Escape latency, 3rd Day [1, 5]: 21.33 ± 2.68 s | Escape latency, 4th Day [1, 5]: 13.16 ± 2.31 s | Escape latency, 5th Day [1, 5]: 3.66 ± 0.94 s

6-chloro-N-(1-(1-(3,4-dimethoxybenzyl)-2-oxopyrrolidin-3-yl)piperidin-4-yl)pyridine-3-sulfonamide [Compound 9]
GSH assay, μmol of GSH/mg Protein [2]: 0.11 ± 0.002 μmol of GSH/mg Protein | Nitrite assay, nitrite conc. (nitrite): 10.42 ± 0.04 μM/mg protein | μM of AChE/min/mg protein [3]: 0.01 ± 0.01 μM of AChE/min/mg protein | LPO assay, MDA levels (malondialdehyde (MDA)): 8.48 ± 0.02 nM/mg of tissue | SOD assay, SOD units/mg protein [4]: 4.09 ± 0.02 SOD units/mg protein | Catalase assay, Catalase activity (Catalase): 6.23 ± 0.02 min⁻¹ | improvement of cognitive defects (in words) [1]: most potent | escape latency versus scopolamine-treated mice (in words) [1]: significantly reduced escape latency | Escape latency, 1st Day [1, 5]: 80.5 ± 0.84 s | Escape latency, 2nd Day [1, 5]: 40.83 ± 0.98 s | Escape latency, 3rd Day [1, 5]: 23.5 ± 2.92 s | Escape latency, 4th Day [1, 5]: 15.83 ± 3.37 s | Escape latency, 5th Day [1, 5]: 2.66 ± 0.68 s

N-(1-(1-(3,4-dimethoxybenzyl)-2-oxopyrrolidin-3-yl)piperidin-4-yl)-2,4-difluorobenzenesulfonamide [Compound 10]
GSH assay, μmol of GSH/mg Protein [2]: 0.10 ± 0.005 μmol of GSH/mg Protein | Nitrite assay, nitrite conc. (nitrite): 12.82 ± 0.04 μM/mg protein | μM of AChE/min/mg protein [3]: 0.01 ± 0.01 μM of AChE/min/mg protein | LPO assay, MDA levels (malondialdehyde (MDA)): 8.52 ± 0.05 nM/mg of tissue | SOD assay, SOD units/mg protein [4]: 3.07 ± 0.04 SOD units/mg protein | Catalase assay, Catalase activity (Catalase): 4.3 ± 0.01 min⁻¹ | escape latency versus scopolamine-treated mice (in words) [1]: significantly reduced escape latency | Escape latency, 1st Day [1, 5]: 80.33 ± 1.09 s | Escape latency, 2nd Day [1, 5]: 36 ± 1.09 s | Escape latency, 3rd Day [1, 5]: 25.33 ± 1.79 s | Escape latency, 4th Day [1, 5]: 17 ± 1.67 s | Escape latency, 5th Day [1, 5]: 3.66 ± 1.88 s

N-(1-(1-(3,4-dimethoxybenzyl)-2-oxopyrrolidin-3-yl)piperidin-4-yl)-4-fluorobenzenesulfonamide [Compound 8]
GSH assay, μmol of GSH/mg Protein [2]: 0.11 ± 0.001 μmol of GSH/mg Protein | Nitrite assay, nitrite conc. (nitrite): 11.92 ± 0.05 μM/mg protein | μM of AChE/min/mg protein [3]: 0.01 ± 0.01 μM of AChE/min/mg protein | LPO assay, MDA levels (malondialdehyde (MDA)): 9.71 ± 0.03 nM/mg of tissue | SOD assay, SOD units/mg protein [4]: 4.07 ± 0.03 SOD units/mg protein | Catalase assay, Catalase activity (Catalase): 5.23 ± 0.02 min⁻¹ | escape latency versus scopolamine-treated mice (in words) [1]: significantly reduced escape latency | Escape latency, 2nd Day [1, 5]: 43 ± 2.68 s | Escape latency, 3rd Day [1, 5]: 22.66 ± 1.79 s | Escape latency, 4th Day [1, 5]: 14.16 ± 2.56 s | Escape latency, 5th Day [1, 5]: 5.66 ± 1.97 s

2-(1-benzylpiperidin-4-yl)-6,7-dimethoxy-4-(4-methoxyphenyl)quinoline [Compound 18]
GSH assay, μmol of GSH/mg Protein [2]: 0.11 ± 0.001 μmol of GSH/mg Protein | Nitrite assay, nitrite conc. (nitrite): 10.51 ± 0.03 μM/mg protein | μM of AChE/min/mg protein [3]: 0.01 ± 0.01 μM of AChE/min/mg protein | LPO assay, MDA levels (malondialdehyde (MDA)): 8.52 ± 0.02 nM/mg of tissue | SOD assay, SOD units/mg protein [4]: 4.08 ± 0.02 SOD units/mg protein | Catalase assay, Catalase activity (Catalase): 5.53 ± 0.01 min⁻¹ | improvement of cognitive defects (in words) [1]: most potent | escape latency versus scopolamine-treated mice (in words) [1]: significantly reduced escape latency | Escape latency, 2nd Day [1, 5]: 44.83 ± 3.125 s | Escape latency, 3rd Day [1, 5]: 24.66 ± 1.24 s | Escape latency, 4th Day [1, 5]: 13.83 ± 2.63 s | Escape latency, 5th Day [1, 5]: 3.33 ± 1.37 s

N-(1-benzylpiperidin-4-yl)-2-(2-oxoindolin-3-yl)acetamide [Compound 23]
μM of AChE/min/mg protein [3]: 0.01 ± 0.04 μM of AChE/min/mg protein | escape latency versus scopolamine-treated mice (in words) [1]: significantly reduced escape latency | Escape latency, 1st Day [1, 5]: 55.33 ± 1.96 s | Escape latency, 2nd Day [1, 5]: 45.16 ± 0.75 s | Escape latency, 3rd Day [1, 5]: 35.33 ± 2.56 s | Escape latency, 4th Day [1, 5]: 11.83 ± 1.94 s | Escape latency, 5th Day [1, 5]: 4.16 ± 1.067 s

2-(2-(1-benzylpiperidin-4-yl)ethyl)-4-chloro-6,7-dimethoxyquinoline [Compound 17]
GSH assay, μmol of GSH/mg Protein [2]: 0.11 ± 0.006 μmol of GSH/mg Protein | Nitrite assay, nitrite conc. (nitrite): 12.57 ± 0.05 μM/mg protein | μM of AChE/min/mg protein [3]: 0.02 ± 0.01 μM of AChE/min/mg protein | LPO assay, MDA levels (malondialdehyde (MDA)): 8.73 ± 0.05 nM/mg of tissue | SOD assay, SOD units/mg protein [4]: 3.09 ± 0.02 SOD units/mg protein | Catalase assay, Catalase activity (Catalase): 4.76 ± 0.02 min⁻¹ | escape latency versus scopolamine-treated mice (in words) [1]: significantly reduced escape latency | Escape latency, 1st Day [1, 5]: 81 ± 0.89 s | Escape latency, 2nd Day [1, 5]: 32.83 ± 1.83 s | Escape latency, 3rd Day [1, 5]: 22.66 ± 1.79 s | Escape latency, 4th Day [1, 5]: 12.33 ± 2.25 s | Escape latency, 5th Day [1, 5]: 4.16 ± 0.74 s
